Measured values published in patent US20250352520A1, “USE OF DEXPRAMIPEXOLE FOR THE TREATMENT OF EOSINOPHILIC COPD” (Areteia Therapeutics, Inc., priority 2024, published 2025).

Details: Week 8; >=50% AEC reduction at Week 16

## CCCN[C@@H]1CCc2nc(N)sc2C1 [Dexpramipexole, (6R)-2-amino-4,5,6,7-tetrahydro-6-(propylamino)benzothiazole]
  Pre-BD FEF25-75 % change from baseline, Max: 38%
  Pre-BD FEF25-75 % change from baseline, Mean ± SD: 10.2 ± 27.88%
  Pre-BD FEF25-75 % change from baseline, Median: 9.5%
  Pre-BD FEF25-75 % change from baseline, Min: −17%
  Pre-BD FEF25-75 % change from baseline, Q1: −17%
  Pre-BD FEF25-75 % change from baseline, Q3: 38%
  Pre-BD FEF25-75 Observed, Max: 1010 mL/s
  Pre-BD FEF25-75 Observed, Mean ± SD: 666.7 ± 398.29 mL/s
  Pre-BD FEF25-75 Observed, Median: 760.0 mL/s
  Pre-BD FEF25-75 Observed, Min: 230 mL/s
  Pre-BD FEF25-75 Observed, Q1: 230 mL/s
  Pre-BD FEF25-75 Observed, Q3: 1010 mL/s
  Pre-BD FEF25-75 change from baseline, Max: 280 mL/s
  Pre-BD FEF25-75 change from baseline, Mean ± SD: 46.7 ± 221.21 mL/s
  Pre-BD FEF25-75 change from baseline, Median: 20.0 mL/s
  Pre-BD FEF25-75 change from baseline, Min: -160 mL/s
  Pre-BD FEF25-75 change from baseline, Q1: -160 mL/s
  Pre-BD FEF25-75 change from baseline, Q3: 280 mL/s
  Pre-BD FEV1 % change from baseline, Max: 53%
  Pre-BD FEV1 % change from baseline, Mean ± SD: 18.7 ± 30.56%
  Pre-BD FEV1 % change from baseline, Median: 8.3%
  Pre-BD FEV1 % change from baseline, Min: −5%
  Pre-BD FEV1 % change from baseline, Q1: −5%
  Pre-BD FEV1 % change from baseline, Q3: 53%
  Pre-BD FEV1 Observed, Max: 1990 mL
  Pre-BD FEV1 Observed, Mean ± SD: 1453.3 ± 616.47 mL
  Pre-BD FEV1 Observed, Median: 1590.0 mL
  Pre-BD FEV1 Observed, Min: 780 mL
  Pre-BD FEV1 Observed, Q1: 780 mL
  Pre-BD FEV1 Observed, Q3: 1990 mL
  Pre-BD FEV1 change from baseline, Max: 690 mL
  Pre-BD FEV1 change from baseline, Mean ± SD: 220.0 ± 413.88 mL
  Pre-BD FEV1 change from baseline, Median: 60.0 mL
  Pre-BD FEV1 change from baseline, Min: -90 mL
  Pre-BD FEV1 change from baseline, Q1: -90 mL
  Pre-BD FEV1 change from baseline, Q3: 690 mL
  Pre-BD FVC % change from baseline, Max: 24%
  Pre-BD FVC % change from baseline, Mean ± SD: 8.8 ± 13.54%
  Pre-BD FVC % change from baseline, Median: 3.3%
  Pre-BD FVC % change from baseline, Min: −1%
  Pre-BD FVC % change from baseline, Q1: −1%
  Pre-BD FVC % change from baseline, Q3: 24%
  Pre-BD FVC Observed, Max: 3130 mL
  Pre-BD FVC Observed, Mean ± SD: 2626.7 ± 477.53 mL
  Pre-BD FVC Observed, Median: 2570.0 mL
  Pre-BD FVC Observed, Min: 2180 mL
  Pre-BD FVC Observed, Q1: 2180 mL
  Pre-BD FVC Observed, Q3: 3130 mL
  Pre-BD FVC change from baseline, Max: 610 mL
  Pre-BD FVC change from baseline, Mean ± SD: 216.7 ± 344.29 mL
  Pre-BD FVC change from baseline, Median: 70.0 mL
  Pre-BD FVC change from baseline, Min: -30 mL
  Pre-BD FVC change from baseline, Q1: -30 mL
  Pre-BD FVC change from baseline, Q3: 610 mL
  Pre-BD Peak Flow % change from baseline, Max: 90%
  Pre-BD Peak Flow % change from baseline, Mean ± SD: 25.2 ± 58.36%
  Pre-BD Peak Flow % change from baseline, Median: 9.6%
  Pre-BD Peak Flow % change from baseline, Min: −24%
  Pre-BD Peak Flow % change from baseline, Q1: −24%
  Pre-BD Peak Flow % change from baseline, Q3: 90%
  Pre-BD Peak Flow Observed, Max: 298 L/min
  Pre-BD Peak Flow Observed, Mean ± SD: 197.7 ± 87.79 L/min
  Pre-BD Peak Flow Observed, Median: 160.0 L/min
  Pre-BD Peak Flow Observed, Min: 135 L/min
  Pre-BD Peak Flow Observed, Q1: 135 L/min
  Pre-BD Peak Flow Observed, Q3: 298 L/min
  Pre-BD Peak Flow change from baseline, Max: 141 L/min
  Pre-BD Peak Flow change from baseline, Mean ± SD: 37.7 ± 93.77 L/min
  Pre-BD Peak Flow change from baseline, Median: 14.0 L/min
  Pre-BD Peak Flow change from baseline, Min: -42 L/min
  Pre-BD Peak Flow change from baseline, Q1: -42 L/min
  Pre-BD Peak Flow change from baseline, Q3: 141 L/min
